Columns and labels:
A549 cells = experiment: Western blot of apoptosis-related factors; assay type: cell-based, human; settings: A549 cell lysate; FIG. 12
Description: (§1) The cell lysate of each type of cells treated with the chelating agents of test groups 6 and 10 was Western-blotted, and then an increase or a decrease in apoptosis-related factors in treated cells was confirmed using the indicated antibodies. […] Concentration-dependent apoptosis induction was also biochemically confirmed.

MCF-7 cells = experiment: Western blot of apoptosis-related factors; assay type: cell-based, human; settings: MCF-7 cell lysate; FIG. 12
Description: as §1

HSC-2 cells = experiment: Western blot of apoptosis-related factors; assay type: cell-based, human; settings: HSC-2 cell lysate; FIG. 12
Description: as §1

[1] = tested on: human oral squamous cell carcinoma HSC-2; experiment: Antitumor effects, cell viability (XTT method); assay type: cell-based; settings: FIG. 10
Procedure: (§2) The antitumor effects of the chelating agents of test groups 1 to 10 on each of human lung cancer cell line A549, human liver cancer cell line PLC, and human colon adenocarcinoma cell line HCT116 were confirmed. A549 cells or PLC cells were seeded at 3000 cells/well, and HCT116 cells were seeded at 6000 cells/well. After 24 hours, the fetal bovine serum (FBS) concentration was changed from 10% to 1%, each compound of the test groups 1 to 10 was introduced into medium. Cell viability was confirmed after 48 hours by the Trypan blue method, or, cell viability was confirmed after 48 hours by performing medium exchange and then after 24 hours by performing the XTT method. Deferoxamine mesylate (Desferal (Trademark)) was used as a positive control. Results are as depicted in FIGS. 1A, 1B, 2 and 3.
(§3) Moreover, similarly to the above experiment on antitumor effects, the antitumor effects of the chelating agent of test group 6 or 10 on each of human breast cancer cell line MCF-7 and human oral squamous cell carcinoma HSC-2 were confirmed.

[2] = tested on: human breast cancer cell line MCF-7; experiment: Antitumor effects, cell viability (XTT method); assay type: cell-based; settings: FIG. 9
Procedure: as §2, §3

SMILES: Cl.OCC1OC(O)C(NCc2ccc(O)c(O)c2O)C(O)C1O (centres unmarked) [Test group 6]
- PARP cleaved fragments and caspase-3-cleaved fragments (Western blot) (A549 cells): PARP cleaved fragments and caspase-3-cleaved fragments were confirmed
- PARP cleaved fragments and caspase-3-cleaved fragments (Western blot) (MCF-7 cells): PARP cleaved fragments and caspase-3-cleaved fragments were confirmed
- PARP cleaved fragments and caspase-3-cleaved fragments (Western blot) (HSC-2 cells): PARP cleaved fragments and caspase-3-cleaved fragments were confirmed
- antitumor effects on HSC-2 (cell viability) [1]: exhibit antitumor effects
- antitumor effects on MCF-7 (cell viability) [2]: exhibit antitumor effects
